In patent US9409891B2, “Solid forms of an antiviral compound” (Gilead Sciences, Inc., priority 2012, dated 2016):
In brackets after ≈: the same amount, converted by molar mass. Entries after “also recorded” stand apart in the source; their conditions may differ.

Key:
Assay type in all cases: physicochemical
[1] = Hydrate screening, EtOH/water system; settings: ethanol/water
From the text: When the organic component used in the solvent mixture forms solvate with Compound I, potential hydrates may not show up in the slurry screen, as shown in the hydrate screening using ethanol/water mixtures (Table 4). Form IX is a new form found in this study.

[2] = Stable form competition study in ACN; settings: Forms I through V added to high concentration solution of amorphous Compound I in ACN, stirred overnight
Experimental: To further verify the stability of Form II, competitive crystallization was conducted by adding Forms I through V into a high concentration solution of amorphous Compound I in ACN. […] The mother liquor obtained, which was saturated in terms of Form II, was used in another test in which other forms (Forms I, III, IV and V) were added.

[3] = Seeding of Compound I solution in DIPE with Form VI; settings: Compound I solution in DIPE seeded with Form VI; only Form II obtained
Experimental: In an attempt crystallize Form VI, the solution of Compound I in DIPE was seeded with Form VI. However, only Form II was obtained.

[4] = Form II stability in water at elevated temperature (slurry, XRPD)
Experimental: During formulation, Compound I may be wet granulated and dried at <50° C. A slurry of Form II in water was stirred at 48° C. (50° C. jacket) and was sampled periodically for XRPD analysis to determine Form I content.

[5] = Follow-up stable form screening (Form II stirred in solvents at about 22° C.); settings: for 2-Week Form / 24 h Form: Form II stirred at about 22° C.; for solubility: about 22° C., Form II start
Experimental: In the follow-up stable form screening experiments, the starting materials were Form II. The solids were stirring in the solvents list below at about 22° C. in 2 ml vials.

[6] = Stability and hygroscopicity under ambient conditions
[7] = Hydrate screening, ACN/water system
[8] = water content 10%, water activity 0.510
[9] = water content 20%, water activity 0.654

CC1=CC[C@H](C(=O)N(c2cc(C#CC(C)(C)C)sc2C(=O)O)[C@H]2CC[C@](O)(CO[C@H]3CCOC3)CC2)CC1 (relative stereo) [Form II, 5-(3,3-dimethylbutyn-1-yl)-3-[(cis-4-hydroxy-4-{[(3S)-tetrahydrofuran-3-yloxy]methyl}cyclohexyl){[(1R)-4-methylcyclohex-3-en-1-yl]carbonyl}amino]thiophene-2-carboxylic acid]
Form at 2 weeks [1, 8]: solution | Form at 90 hours [1, 8]: solution | Form at 2 weeks [1, 9]: solution | Form at 90 hours [1, 9]: solution | Form at 90 hours ([1]; water content 50%, water activity 0.806): III + small | Form detected after competitive crystallization [2]: the only detected form | Relative stability of forms [3]: more stable than Form VI | Form conversion in water ([4]; Form II in water at 48° C.): slowly converted to Form I; also recorded: converts slowly to Form I | Form I content by XRPD ([4]; Form II slurry in water, 48° C. (50° C. jacket), 6 hour point): not detected | Form by XRPD ([4]; Form II slurry in water, 48° C., after 30 hours): Form I became the dominant form | 2-Week Form ([5]; 2 Me-THF): solution | 24 h Form ([5]; 2 Me-THF): solution | solubility ([5]; 2 Me-THF, solution): >334 mg/mL | solubility ([5]; ACN/water (50/50)): 18 mg/mL (≈ 33.1 mM) | solubility ([5]; ACN): 6 mg/mL (≈ 11 mM) | solubility ([5]; Acetone): 241 mg/mL (≈ 443 mM) | 2-Week Form ([5]; DCM): solution | 24 h Form ([5]; DCM): solution | solubility ([5]; DCM, solution): >274 mg/mL | solubility ([5]; Ethyl Acetate): 124 mg/mL (≈ 228 mM) | solubility ([5]; Heptane): 0.05 mg/mL (≈ 0.092 mM) | solubility ([5]; Isopropyl Acetate): 59 mg/mL (≈ 109 mM) | solubility ([5]; MIBK): 116 mg/mL (≈ 213 mM) | 2-Week Form ([5]; MeOH): solution | 24 h Form ([5]; MeOH): solution | solubility ([5]; MeOH, solution): >321 mg/mL | solubility ([5]; Methyl t-butyl ether): 108 mg/mL (≈ 199 mM) | 2-Week Form ([5]; THF): solution | 24 h Form ([5]; THF): solution | solubility ([5]; THF, solution): >346 mg/mL | solubility ([5]; Toluene): 40 mg/mL (≈ 73.6 mM) | 24 h Form ([5]; Water): II + I | Stability of Form II in tested solvents (summary of Table 2) ([5]; stirred at about 22° C., up to 2 weeks): stable in most tested solvents except for alcohols, water, and MEK | Stability and hygroscopicity [6]: stable and non-hygroscopic | Equivalent RH up to which Form II is stable ([7]; 22° C.): ≤ 86.3 % RH | Water activity up to which Form II is stable ([7]; 22° C.): up to 0.863 | Form at 2 weeks ([7]; water content 30%, water activity 0.896, 22° C.): VIII | Form at 2 weeks ([7]; water content 32%, water activity 0.9, 22° C.): VIII | Form at 2 weeks ([7]; water content 40%, water activity 0.914, 22° C.): VIII | Form at 2 weeks ([7]; water content 50%, water activity 0.926, 22° C.): VIII | Form at 24 h or 90 h ([7]; water content 50%, water activity 0.926, 90 h, 22° C.): II + small | Form at 2 weeks ([7]; water content 60%, water activity 0.936, 22° C.): VIII | Form at 24 h or 90 h ([7]; water content 60%, water activity 0.936, 90 h, 22° C.): VIII + small | Form at 2 weeks ([7]; water content 70%, water activity 0.943, 22° C.): VIII | Form at 2 weeks ([7]; water content 80%, water activity 0.949, 22° C.): II + VIII | Form at 24 h or 90 h ([7]; water content 80.9%, water activity 0.950, 24 h, 22° C.): I + II | Form at 24 h or 90 h ([7]; water content 100%, water activity 1, 24 h, 22° C.): I + II
